We go through 15 molecules from PubChem BioAssay (NCI).

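48-hour exposure; five concentrations; linearly interpolated endpoints. TGI denotes the concentration required for complete inhibition of growth.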

What all share (assay): growth of human tumour cells (NCI), 48 h
Assay [1] has as its system NCI-H226 lung.
Assay [2] relates to SW-620 colon.
Assay [3] concerns NCI-H460 lung.
The test system of assay [4] is SF-539 CNS.
Assay [5] relates to CAKI-1 renal.
Assay [6] concerns U251 CNS.
In assay [7] the test system is PC-3 prostate.
Assay [8] relates to HOP-92 NSCLC.
The test system of assay [9] is IGROV1 ovarian.
Assay [10] deals with SNB-19 CNS.
Assay [11] has as its system KM12 colon.
The test system of assay [12] is T-47D breast.
Assay [13] concerns MDA-MB-435.
For assay [14], the system named is MOLT-4 leukemia.
The subject of assay [15] is MDA-N.
The subject of assay [16] is TK-10 renal.
The test system of assay [17] is NCI/ADR-RES ovarian.
Assay [18] relates to BT-549 breast.
In assay [19] the test system is UO-31 renal.
Assay [20] relates to SR leukemia.

`CCOC(=O)c1c(N2CCOCC2)ncn(-c2cccc(Cl)c2)c1=O`: the TGI in assay [1], in assay [2], in assay [3], in assay [4], in assay [5] and in assay [6] was > 100 µM in each case. In addition, the TGI in assay [7], in [8], in [9], in [10], in assay [11] and in assay [12] was > 100 µM each time. In addition, the TGI in [13], in assay [14], in assay [15], in assay [16], in assay [17] and in [18] was > 100 µM throughout.

For the molecule `CC(C)(C)[Si](C)(C)OCCc1ccccc1C1CC2(S(=O)(=O)c3ccccc3)ON1CC2S(=O)(=O)c1ccccc1` (centres undefined), the TGI in assay [1], in assay [2], in assay [3], in [4], in [6] and in assay [9] was > 100 µM in each case. For the same molecule, the TGI in assay [10], in assay [11], in [12], in assay [13], in assay [14] and in assay [15] was > 100 µM throughout. Besides, the TGI in [16], in [17], in [18] and in assay [19] was > 100 µM each time.

Consider `CC1=NN(C(=O)CC(=O)NC(=O)/C=C\c2ccccc2)C(=O)C1N=Nc1ccc([N+](=O)[O-])cc1` (centres undefined), for which the TGI in assay [2], in assay [3], in [4], in [5], in assay [6] and in assay [7] was > 100 µM throughout. The TGI in assay [8] was 97.4 µM; in assay [9], > 100 µM; in assay [10], > 100 µM; in [11] it was > 100 µM; in [12] it was > 100 µM; in assay [13], > 100 µM. The TGI in assay [14] is > 100 µM; in assay [15], > 100 µM; in assay [16], > 100 µM; in [17], > 100 µM; in [18], 83.5 µM; in assay [19], > 100 µM.

Regarding `C/C(O)=C(\C=NC(=S)c1cccnc1)C(=O)Nc1ccccc1C`, the TGI in assay [1], in assay [2], in assay [3], in [4], in assay [5] and in assay [6] was > 100 µM in each case. Further, the TGI in assay [7], in assay [8], in assay [9], in assay [10], in assay [11] and in assay [12] was > 100 µM throughout. For the same molecule, the TGI in assay [13], in assay [14], in assay [15], in assay [16], in assay [17] and in [18] was > 100 µM throughout. Moreover, the TGI in [19] is > 100 µM.

Regarding `O=C(/C=C/c1ccccc1)c1cc(C(=O)/C=C/c2ccccc2)c(O)cc1O`, the TGI in [2], in [3], in assay [4], in assay [5], in assay [7] and in assay [8] was > 100 µM each time. Besides, the TGI in [9], in [10], in [13], in [14], in assay [15] and in assay [16] was > 100 µM each time. Also, the TGI in assay [18] and in assay [19] was > 100 µM throughout.

For `O=C(OCc1ccccc1)c1ccc(NCc2cc(O)ccc2O)cc1`, the TGI in assay [1] turned out to be 7.69 µM; in [2], 3.93 µM; in assay [3] it was 18.7 µM; in [4] it was 2.27 µM; in assay [5], 1.79 µM; in assay [6], 2.64 µM. For the same molecule, the TGI in assay [7] turned out to be 2.73 µM; in [8], 2.23 µM; in assay [9] it was 2.49 µM; in assay [10], 10.8 µM; in assay [11] it was 3.62 µM; in assay [13] it was 3.9 µM. In addition, the TGI amounted to 4.6 µM in assay [15]; 3.87 µM in assay [16]; 4.18 µM in assay [17]; 2.19 µM in [18]; 2.61 µM in assay [19].

As to `COc1c2cc([N+](=O)[O-])cc1CN(C(=O)C(F)(F)F)CCOCCN(C(=O)C(F)(F)F)C2`, the TGI in assay [1], in assay [2], in [3], in [4], in assay [5] and in assay [6] was > 100 µM throughout. Further, the TGI in assay [7], in assay [8], in assay [9], in [10], in assay [11] and in [12] was > 100 µM in each case. The TGI in assay [13], in assay [14], in [15], in assay [16], in assay [18] and in [19] was > 100 µM throughout.

For the molecule `CO[C@@H]1C[C@H]2[C@@H]3CC[C@H]([C@H](C)COC(C)=O)[C@@]3(C)CC[C@@H]2[C@@]2(C)CC[C@H]3C[C@]312`, the TGI in [1], in assay [2], in assay [3], in assay [4], in assay [5] and in assay [6] was > 100 µM each time. For the same molecule, the TGI in assay [7], in assay [8], in [9], in assay [10], in assay [11] and in assay [12] was > 100 µM in each case. The TGI in assay [13], in assay [14], in assay [20], in assay [15], in assay [16] and in [17] was > 100 µM in each case. The TGI in assay [19] was > 100 µM.

As to `CN(C(=S)Cc1ccc(Cl)c(Cl)c1)C1CCCC[C@@H]1N1CCCC1` (some centres undefined), the TGI in [1] was > 100 µM; in [2] it was 48.4 µM; in assay [4], > 100 µM; in [5], > 100 µM; in assay [6], > 100 µM; in assay [7], > 100 µM. The TGI in assay [10] was > 100 µM; in assay [11] it was > 100 µM; in assay [12], > 100 µM; in assay [13] it was 87.5 µM; in assay [14], > 100 µM; in assay [15] it was 36.2 µM. In addition, the TGI is 89.2 µM in assay [16], > 100 µM in assay [17], > 100 µM in [18] and 48.8 µM in assay [19].

Regarding `Cc1ccc2c(=O)c(-c3nnc(NC4CCCCC4)s3)c[nH]c2n1`, the TGI in [1], in [2], in assay [3], in assay [5], in assay [6] and in assay [7] was > 100 µM in each case. In addition, the TGI in [9], in [10], in assay [11], in assay [12], in assay [13] and in [14] was > 100 µM in each case. For the same molecule, the TGI in assay [15], in assay [16], in assay [17], in assay [18] and in [19] was > 100 µM each time.

As to `O=C(O/N=c1/ccc(=O)/c(=N\OC(=O)c2ccccc2)c1=O)c1ccccc1`, the TGI in assay [1], in [2], in [3], in assay [4], in [5] and in assay [6] was > 100 µM each time. The TGI in assay [7], in assay [8], in assay [9], in [10], in assay [11] and in assay [12] was > 100 µM each time. The TGI in assay [13], in [14], in assay [20], in assay [15], in assay [16] and in [17] was > 100 µM each time. Further, in [19], the TGI is > 100 µM.

In the case of `CC(=O)O[C@H]1CC[C@H]2[C@@H]3CCC4=C/C(=N/OCCN(C)C)CC[C@]4(C)[C@H]3CC[C@]12C`, the TGI in assay [1] came out at 15.7 µM; in assay [2], 23.9 µM; in assay [3], 20.4 µM; in [4], 7.28 µM; in [5], 27.2 µM; in [6], 26.4 µM. The TGI worked out at 27.3 µM in assay [7]; 26.2 µM in assay [9]; 22.4 µM in [10]; 18.9 µM in assay [11]; 19.5 µM in assay [12]; 6.42 µM in [13]. Also, the TGI in [14] was determined as 13 µM; in assay [15] it was 14.4 µM; in [16] it was 27 µM; in assay [17], 27.8 µM; in assay [18] it was 27.2 µM; in assay [19], 28.1 µM.

Turning to `CC(=O)c1c2c(cc3c1CC1(Cc4cc5c(cc4C1)C(=O)CCC5)C3)CCCC2` (centres undefined), the TGI was 41.8 µM in assay [1]; > 100 µM in assay [2]; 67.2 µM in assay [3]; 13.6 µM in [4]; > 100 µM in [5]; > 100 µM in assay [6]. The TGI in assay [7] is > 83.5 µM; in [8], 40.1 µM; in assay [9], > 30.8 µM; in assay [10] it was 80.9 µM; in [11] it was 78.4 µM; in assay [12], > 81.7 µM. In addition, the TGI in [13] was 11.4 µM; in assay [14], 7.96 µM; in [20], 5.53 µM; in [15], 12.9 µM; in assay [16], > 100 µM; in assay [17] it was > 100 µM. Besides, in assay [19], the TGI is > 90.6 µM.

Turning to `C=C1C2CC3CCC2C(OC(=O)c2ccccc2C(=O)O)C13` (centres undefined), the TGI in assay [1], in [2], in assay [3], in assay [4], in [5] and in assay [6] was > 100 µM throughout. Moreover, the TGI in assay [7], in assay [8], in [9], in [10], in assay [11] and in assay [12] was > 100 µM throughout. In addition, the TGI in [13], in [14], in assay [20], in assay [15], in [16] and in [17] was > 100 µM in each case. In assay [19], the TGI was > 100 µM.

On to `COc1ccc(/C=C2\CCC(C)c3c2nc(N)c(C#N)c3-c2ccc(OC)c(OC)c2)cc1OC` (centres undefined), for which the TGI in [1], in assay [2], in [4], in assay [5], in assay [6] and in [7] was > 100 µM throughout. The TGI is > 100 µM in [9]; > 100 µM in [10]; > 100 µM in [11]; 6.38 µM in [12]; > 100 µM in assay [13]; > 100 µM in assay [14]. Moreover, the TGI in [15], in [16], in assay [17], in [18] and in assay [19] was > 100 µM throughout.
